Patent US8420657B2 (Novartis AG, priority 2008, dated 2013)
Read-outs that look alike come from different tables or passages of the source.

Key:
Type in all cases: biochemical
GST-JAK2(808-1132) = target: T1, GST-JAK2(808-1132) (Homo sapiens, UniProt O60674); assay: JAK2 kinase assay (Caliper mobility shift, LabChip 3000)
T1 construct: GST-JAK2(808-1132); purchased Invitrogen (Carlsbad, USA) #4288
Procedure, shortened: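 Eight-point compound series (final 10–0.003 μM) tested on purchased GST-JAK2 kinase domain (808-1132). Peptide FITC-JAK3tide plus ATP reacted 60 min, 30 °C, then quenched with EDTA; turnover from charge-based separation of substrate and product.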

PDGFRalpha = target: T2, PDGFRalpha (Homo sapiens, UniProt P16234); assay: PDGFRalpha LanthaScreen TR-FRET kinase phosphorylation assay; conditions: recombinant kinase domain, read-out: PDGFRa/IC50
T2 construct: using the recombinant domains of cMet, cKit, ALK and PDGFRalpha kinases
Method: (§1) The compounds are assayed in an antibody based kinase phosphorylation assay using the recombinant domains of cMet, cKit, ALK and PDGFRalpha kinases and a generic phospho-tyrosine peptide substrate. LanthaScreen™ is the detection of Time-Resolved Fluorescence Resonance Energy Transfer (TR-FRET) using lanthanide chelates to measure interactions between various binding partners. In a TR-FRET kinase assay, a long-lifetime lanthanide donor species is conjugated to an antibody that specifically binds to a phosphorylated product of a kinase reaction that is labeled with a suitable acceptor fluorophore. This antibody-mediated interaction brings the lanthanide donor and the acceptor into proximity such that resonance energy transfer can take place, resulting in a detectible increase in FRET. The LanthaScreen is run at ambient temperature and terminated by the addition of stop solution, followed by Tb-labeled P-20 antibody. After incubating in the dark, the plates are transferred to a fluorescence reader for counting. The effect of compound on the enzymatic activity is in all assays obtained from the linear progress curves and determined from one reading (end point measurement).

ALK = target: T3, ALK (Homo sapiens, UniProt Q9UM73); assay: ALK LanthaScreen TR-FRET kinase phosphorylation assay; conditions: recombinant kinase domain
T3 construct: using the recombinant domains of cMet, cKit, ALK and PDGFRalpha kinases
Method: as §1

cMet = target: T4, cMet (Homo sapiens, UniProt P08581); assay: cMet LanthaScreen TR-FRET kinase phosphorylation assay; conditions: recombinant kinase domain
T4 construct: using the recombinant domains of cMet, cKit, ALK and PDGFRalpha kinases
Method: as §1

cKit = target: T5, cKit (Homo sapiens, UniProt P10721); assay: cKit LanthaScreen TR-FRET kinase phosphorylation assay; conditions: recombinant kinase domain
T5 construct: using the recombinant domains of cMet, cKit, ALK and PDGFRalpha kinases
Method: as §1

Measured: IC50

T1 sequence (O60674 808-1132): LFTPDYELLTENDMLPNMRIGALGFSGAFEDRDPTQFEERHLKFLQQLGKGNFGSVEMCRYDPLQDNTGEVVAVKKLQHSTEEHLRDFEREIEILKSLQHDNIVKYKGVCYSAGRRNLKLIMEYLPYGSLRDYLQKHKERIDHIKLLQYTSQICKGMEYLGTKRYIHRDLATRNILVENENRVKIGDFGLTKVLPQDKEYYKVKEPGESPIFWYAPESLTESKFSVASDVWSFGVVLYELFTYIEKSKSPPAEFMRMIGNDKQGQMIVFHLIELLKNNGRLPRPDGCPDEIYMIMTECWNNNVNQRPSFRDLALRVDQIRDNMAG
T3 sequence (Q9UM73 1116-1392 limits assumed, species assumed): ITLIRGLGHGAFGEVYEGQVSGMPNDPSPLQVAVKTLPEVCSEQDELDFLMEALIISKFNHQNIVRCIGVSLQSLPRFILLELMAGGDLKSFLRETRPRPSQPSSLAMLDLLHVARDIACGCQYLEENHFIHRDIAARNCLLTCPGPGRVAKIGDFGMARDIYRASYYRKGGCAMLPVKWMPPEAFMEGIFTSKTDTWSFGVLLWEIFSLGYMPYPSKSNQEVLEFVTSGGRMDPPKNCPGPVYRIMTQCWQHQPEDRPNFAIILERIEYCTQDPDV
T2 sequence (P16234 593-954 limits assumed, species assumed): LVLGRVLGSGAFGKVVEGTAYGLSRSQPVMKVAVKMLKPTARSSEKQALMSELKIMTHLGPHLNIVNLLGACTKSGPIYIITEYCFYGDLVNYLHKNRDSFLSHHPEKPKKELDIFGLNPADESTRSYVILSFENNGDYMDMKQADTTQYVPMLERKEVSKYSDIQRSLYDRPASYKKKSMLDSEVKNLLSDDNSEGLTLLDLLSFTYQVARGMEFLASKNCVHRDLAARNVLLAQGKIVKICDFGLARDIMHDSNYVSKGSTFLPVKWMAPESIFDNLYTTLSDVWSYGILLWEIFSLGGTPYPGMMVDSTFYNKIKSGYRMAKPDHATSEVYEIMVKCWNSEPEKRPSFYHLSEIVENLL
T4 sequence (P08581 1078-1345 limits assumed): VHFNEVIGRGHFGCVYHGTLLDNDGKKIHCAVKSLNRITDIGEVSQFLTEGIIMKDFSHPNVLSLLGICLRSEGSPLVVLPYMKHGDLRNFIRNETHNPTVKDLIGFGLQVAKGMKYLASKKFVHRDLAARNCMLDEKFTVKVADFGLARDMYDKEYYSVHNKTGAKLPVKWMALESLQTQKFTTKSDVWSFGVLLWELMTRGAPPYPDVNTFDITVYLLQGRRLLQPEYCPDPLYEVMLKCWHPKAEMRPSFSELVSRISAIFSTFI
T5 sequence (P10721 589-937 limits assumed): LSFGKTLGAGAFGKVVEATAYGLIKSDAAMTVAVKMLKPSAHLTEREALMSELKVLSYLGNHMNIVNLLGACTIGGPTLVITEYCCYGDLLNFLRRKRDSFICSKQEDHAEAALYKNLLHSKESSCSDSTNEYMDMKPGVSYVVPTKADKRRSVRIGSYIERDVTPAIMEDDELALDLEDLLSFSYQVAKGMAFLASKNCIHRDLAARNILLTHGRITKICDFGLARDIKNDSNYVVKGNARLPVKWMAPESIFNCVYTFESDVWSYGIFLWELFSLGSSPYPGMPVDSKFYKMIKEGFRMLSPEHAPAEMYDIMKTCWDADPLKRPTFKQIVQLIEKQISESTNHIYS

N#Cc1ccc(Nc2ncc3ccn(-c4ccc(C(=O)N5CCOCC5)cc4)c3n2)cn1 [Example 235, 5-{7-[4-(Morpholine-4-carbonyl)-phenyl]-7H-pyrrolo[2,3-d]pyrimidin-2-ylamino}-pyridine-2-carbonitrile]
0.056 µM: GST-JAK2(808-1132) | GST-JAK2(808-1132); Table 3
> 10 µM: PDGFRalpha | ALK | cMet | cKit
